# From PubChem BioAssay (NCI)
#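 96-well plates; 48 h exposure; 5 concentrations. Endpoints by linear interpolation between flanking doses. Not reached: highest tested concentration assigned. Here, GI50 denotes the concentration required for 50% inhibition of growth. TGI: total growth inhibition.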
# How the values were obtained:
# Assay in all cases: growth of human tumour cells (NCI), 48 h
# MOLT-4 leukemia = tested on: MOLT-4 leukemia
# SN12C renal = tested on: SN12C renal
# COLO 205 colon = tested on: COLO 205 colon
# NCI-H460 lung = tested on: NCI-H460 lung
# UACC-257 melanoma = tested on: UACC-257 melanoma
# MDA-MB-231 breast = tested on: MDA-MB-231 breast
# HL-60(TB) leukemia = tested on: HL-60(TB) leukemia
# TK-10 renal = tested on: TK-10 renal
# HCT-116 colon = tested on: HCT-116 colon
# HS 578T breast = tested on: HS 578T breast
# OVCAR-3 ovarian = tested on: OVCAR-3 ovarian
# MDA-MB-468 breast = tested on: MDA-MB-468 breast
# SNB-19 CNS = tested on: SNB-19 CNS
# UO-31 renal = tested on: UO-31 renal
# CCRF-CEM leukemia = tested on: CCRF-CEM leukemia
# IGROV1 ovarian = tested on: IGROV1 ovarian
# SF-295 CNS = tested on: SF-295 CNS
# BT-549 breast = tested on: BT-549 breast
# NCI-H226 lung = tested on: NCI-H226 lung
# LOX IMVI melanoma = tested on: LOX IMVI melanoma
# SW-620 colon = tested on: SW-620 colon
# CAKI-1 renal = tested on: CAKI-1 renal
# KM12 colon = tested on: KM12 colon
# HT29 colon = tested on: HT29 colon
# NCI-H522 lung = tested on: NCI-H522 lung
# T-47D breast = tested on: T-47D breast
# NCI-H23 lung = tested on: NCI-H23 lung
# OVCAR-5 ovarian = tested on: OVCAR-5 ovarian
# SK-MEL-5 melanoma = tested on: SK-MEL-5 melanoma
# SF-539 CNS = tested on: SF-539 CNS
# ACHN renal = tested on: ACHN renal
# EKVX NSCLC = tested on: EKVX NSCLC
# OVCAR-4 ovarian = tested on: OVCAR-4 ovarian
# 786-0 renal = tested on: 786-0 renal
# SK-OV-3 ovarian = tested on: SK-OV-3 ovarian
# MALME-3M melanoma = tested on: MALME-3M melanoma
# PC-3 prostate = tested on: PC-3 prostate
# HCT-15 colon = tested on: HCT-15 colon
# M14 melanoma = tested on: M14 melanoma
# HOP-92 NSCLC = tested on: HOP-92 NSCLC
# SF-268 CNS = tested on: SF-268 CNS
# HCC-2998 colon = tested on: HCC-2998 colon
# DU-145 prostate = tested on: DU-145 prostate
# U251 CNS = tested on: U251 CNS
# K-562 leukemia = tested on: K-562 leukemia
# OVCAR-8 ovarian = tested on: OVCAR-8 ovarian
# RPMI-8226 leukemia = tested on: RPMI-8226 leukemia
# SR leukemia = tested on: SR leukemia
# HOP-62 NSCLC = tested on: HOP-62 NSCLC
# RXF 393 renal = tested on: RXF 393 renal
# SNB-75 CNS = tested on: SNB-75 CNS
# SK-MEL-2 melanoma = tested on: SK-MEL-2 melanoma
# SK-MEL-28 melanoma = tested on: SK-MEL-28 melanoma
# UACC-62 melanoma = tested on: UACC-62 melanoma
# MCF7 breast = tested on: MCF7 breast
# A549 NSCLC = tested on: A549 NSCLC
# MDA-MB-435 = tested on: MDA-MB-435
# NCI/ADR-RES ovarian = tested on: NCI/ADR-RES ovarian
# A498 renal = tested on: A498 renal
structure (smiles),measurement,setting,value
COC(=O)c1c(C(=O)OC)c2n(c1C)[C@@H]([C@@H](C)[C@H]1CC[C@H]3[C@@H]4CCC5=CC(=O)CC[C@]5(C)[C@H]4CC[C@]13C)SC2,GI50,MOLT-4 leukemia,2.02 µM
same,TGI,MOLT-4 leukemia,6.34 µM
same,GI50,SN12C renal,4.06 µM
same,TGI,SN12C renal,> 100 µM
same,GI50,COLO 205 colon,4.94 µM
same,TGI,COLO 205 colon,> 100 µM
same,GI50,NCI-H460 lung,5.25 µM
same,TGI,NCI-H460 lung,> 100 µM
same,GI50,UACC-257 melanoma,3.22 µM
same,TGI,UACC-257 melanoma,> 100 µM
same,GI50,MDA-MB-231 breast,9.73 µM
same,TGI,MDA-MB-231 breast,> 100 µM
same,GI50,HL-60(TB) leukemia,2.34 µM
same,TGI,HL-60(TB) leukemia,14 µM
same,GI50,TK-10 renal,6.34 µM
same,TGI,TK-10 renal,> 100 µM
same,GI50,HCT-116 colon,3 µM
same,TGI,HCT-116 colon,> 100 µM
same,GI50,HS 578T breast,8.22 µM
same,TGI,HS 578T breast,> 100 µM
same,GI50,OVCAR-3 ovarian,5.08 µM
same,TGI,OVCAR-3 ovarian,> 100 µM
same,GI50,MDA-MB-468 breast,1.93 µM
same,TGI,MDA-MB-468 breast,16.6 µM
same,GI50,SNB-19 CNS,8.15 µM
same,TGI,SNB-19 CNS,> 100 µM
same,GI50,UO-31 renal,2.91 µM
same,TGI,UO-31 renal,> 100 µM
same,GI50,CCRF-CEM leukemia,3.41 µM
same,TGI,CCRF-CEM leukemia,> 100 µM
same,GI50,IGROV1 ovarian,18.7 µM
same,TGI,IGROV1 ovarian,> 100 µM
same,GI50,SF-295 CNS,2.68 µM
same,TGI,SF-295 CNS,27.9 µM
same,GI50,BT-549 breast,1.8 µM
same,TGI,BT-549 breast,4.99 µM
same,GI50,NCI-H226 lung,2.58 µM
same,TGI,NCI-H226 lung,61.8 µM
same,GI50,LOX IMVI melanoma,3.86 µM
same,TGI,LOX IMVI melanoma,> 100 µM
same,GI50,SW-620 colon,7.25 µM
same,TGI,SW-620 colon,> 100 µM
same,GI50,CAKI-1 renal,3.93 µM
same,TGI,CAKI-1 renal,> 100 µM
same,GI50,KM12 colon,4.17 µM
same,TGI,KM12 colon,> 100 µM
same,GI50,HT29 colon,3.75 µM
same,TGI,HT29 colon,> 100 µM
same,GI50,NCI-H522 lung,2.55 µM
same,TGI,NCI-H522 lung,53.8 µM
same,GI50,T-47D breast,2.1 µM
same,TGI,T-47D breast,> 100 µM
same,GI50,NCI-H23 lung,3.79 µM
same,TGI,NCI-H23 lung,> 100 µM
same,GI50,OVCAR-5 ovarian,4.67 µM
same,TGI,OVCAR-5 ovarian,> 100 µM
same,GI50,SK-MEL-5 melanoma,1.53 µM
same,TGI,SK-MEL-5 melanoma,3.68 µM
same,GI50,SF-539 CNS,7.07 µM
same,TGI,SF-539 CNS,84.1 µM
same,GI50,ACHN renal,3.36 µM
same,TGI,ACHN renal,> 100 µM
same,GI50,EKVX NSCLC,2.34 µM
same,TGI,EKVX NSCLC,> 100 µM
same,GI50,OVCAR-4 ovarian,3.05 µM
same,TGI,OVCAR-4 ovarian,> 100 µM
same,GI50,786-0 renal,11.3 µM
same,TGI,786-0 renal,> 100 µM
same,GI50,SK-OV-3 ovarian,29.3 µM
same,TGI,SK-OV-3 ovarian,> 100 µM
same,GI50,MALME-3M melanoma,4.44 µM
same,TGI,MALME-3M melanoma,72.9 µM
same,GI50,PC-3 prostate,2.31 µM
same,TGI,PC-3 prostate,> 100 µM
same,GI50,HCT-15 colon,3.69 µM
same,TGI,HCT-15 colon,> 100 µM
same,GI50,M14 melanoma,4.81 µM
same,TGI,M14 melanoma,> 100 µM
same,GI50,HOP-92 NSCLC,6.99 µM
same,TGI,HOP-92 NSCLC,54.4 µM
same,GI50,SF-268 CNS,6.58 µM
same,TGI,SF-268 CNS,> 100 µM
same,GI50,HCC-2998 colon,6.47 µM
same,TGI,HCC-2998 colon,> 100 µM
same,GI50,DU-145 prostate,9.83 µM
same,TGI,DU-145 prostate,> 100 µM
same,GI50,U251 CNS,4.56 µM
same,TGI,U251 CNS,> 100 µM
same,GI50,K-562 leukemia,0.908 µM
same,TGI,K-562 leukemia,> 100 µM
same,GI50,OVCAR-8 ovarian,3.32 µM
same,TGI,OVCAR-8 ovarian,> 100 µM
same,GI50,RPMI-8226 leukemia,1.56 µM
same,TGI,RPMI-8226 leukemia,> 100 µM
same,GI50,SR leukemia,3.5 µM
same,TGI,SR leukemia,> 100 µM
same,GI50,HOP-62 NSCLC,24.3 µM
same,TGI,HOP-62 NSCLC,> 100 µM
same,GI50,RXF 393 renal,8.82 µM
same,TGI,RXF 393 renal,52.4 µM
same,GI50,SNB-75 CNS,11.3 µM
same,TGI,SNB-75 CNS,49.7 µM
same,GI50,SK-MEL-2 melanoma,4.02 µM
same,TGI,SK-MEL-2 melanoma,> 100 µM
same,GI50,SK-MEL-28 melanoma,4.34 µM
same,TGI,SK-MEL-28 melanoma,> 100 µM
same,GI50,UACC-62 melanoma,2.21 µM
same,TGI,UACC-62 melanoma,> 100 µM
same,GI50,MCF7 breast,2.6 µM
same,TGI,MCF7 breast,> 100 µM
same,GI50,A549 NSCLC,4.29 µM
same,TGI,A549 NSCLC,> 100 µM
same,GI50,MDA-MB-435,3.25 µM
same,TGI,MDA-MB-435,> 100 µM
same,GI50,NCI/ADR-RES ovarian,3.13 µM
same,TGI,NCI/ADR-RES ovarian,> 100 µM
same,GI50,A498 renal,17.1 µM
same,TGI,A498 renal,> 100 µM
